Legend:
Settings in all cases: incubation time: 72 h
[1] = tested on: CAL-85-1; test: normalised viability (% of control), CellTiter-Blue; higher = more viable cells (about 100 = DMSO control)
Method: (§1)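 DSRT, CellTiter-Blue viability, 72 h incubation. Signal is normalised to DMSO and benzethonium chloride controls. Value is the normalised response at dose 6.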

[2] = tested on: HDQ-P1; test: as above
Method: as §1

[3] = tested on: DU-4475; test: as above
Method: as §1

[4] = tested on: CAL-51; test: as above
Method: as §1

[5] = tested on: CAL-148; test: as above
Method: as §1

[6] = tested on: MDA-MB-453; test: as above
Method: as §1

[7] = tested on: CAL-120; test: normalised response (% of control), CellTox Green; higher = less cell death (100 = DMSO, 0 = benzethonium chloride kill control)
How it was run: (§2)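 Two readouts were taken after 72 h: CellTox Green fluorescence (485/520 nm) first, then CellTiter-Glo luminescence after 10 min at room temperature. Breast cancer cell lines had been seeded as 20 µl suspension into 384-well plates holding compound at 5 concentrations in 10-fold steps across a compound-specific 10,000-fold range. Each value is a normalised signal at a single concentration, with plates scaled to 0.1 % DMSO (100) and a positive kill control (0).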

[8] = tested on: BT-549; test: as above
How it was run: as §2

[9] = tested on: MCF-10A; test: as above
How it was run: as §2

[10] = tested on: CAL-85-1; test: as above
How it was run: as §2

[11] = tested on: BT-474; test: as above
How it was run: as §2

[12] = tested on: Hs578T; test: as above
How it was run: as §2

[13] = tested on: HDQ-P1; test: as above
How it was run: as §2

[14] = tested on: MFM-223; test: as above
How it was run: as §2

[15] = tested on: MDA-MB-436; test: as above
How it was run: as §2

[16] = tested on: DU-4475; test: as above
How it was run: as §2

[17] = tested on: CAL-51; test: as above
How it was run: as §2

[18] = tested on: MDA-MB-231; test: as above
How it was run: as §2

[19] = tested on: CAL-148; test: as above
How it was run: as §2

[20] = tested on: MDA-MB-453; test: as above
How it was run: as §2

[21] = tested on: HCC1143; test: as above
How it was run: as §2

[22] = tested on: HCC1937; test: as above
How it was run: as §2

[23] = tested on: MDA-MB-468; test: as above
How it was run: as §2

[24] = tested on: HCC1599; test: as above
How it was run: as §2

[25] = tested on: CAL-120; test: normalised response (% of control), CellTiter-Glo; higher = more viable cells (100 = DMSO, 0 = benzethonium chloride kill control)
Method: (§3)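 DSRT, 72 h incubation, CellTox Green / CellTiter-Glo readout. Signal is normalised to DMSO and benzethonium chloride controls. Value is the normalised response at the highest dose.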

[26] = tested on: BT-549; test: as above
Method: as §3

[27] = tested on: MCF-10A; test: as above
Method: as §3

[28] = tested on: CAL-85-1; test: as above
Method: as §3

[29] = tested on: BT-474; test: as above
Method: as §3

[30] = tested on: Hs578T; test: as above
Method: as §3

[31] = tested on: HDQ-P1; test: as above
Method: as §3

[32] = tested on: SK-BR-3; test: as above
Method: as §3

[33] = tested on: MFM-223; test: as above
Method: as §3

[34] = tested on: MDA-MB-436; test: as above
Method: as §3

[35] = tested on: DU-4475; test: as above
Method: as §3

[36] = tested on: CAL-51; test: as above
Method: as §3

[37] = tested on: MDA-MB-231; test: as above
Method: as §3

[38] = tested on: CAL-148; test: as above
Method: as §3

[39] = tested on: MDA-MB-453; test: as above
Method: as §3

[40] = tested on: HCC1143; test: as above
Method: as §3

[41] = tested on: HCC1937; test: as above
Method: as §3

[42] = tested on: MDA-MB-468; test: as above
Method: as §3

[43] = tested on: HCC1599; test: as above
Method: as §3

CN1CCC(COc2cnc(-c3cccc(Cn4nc(-c5cccc(C#N)c5)ccc4=O)c3)nc2)CC1 (300 nM)
normalised viability [1]: 93.4%
normalised viability [2]: 81.3%
normalised viability [3]: 105%
normalised viability [4]: 101%
normalised viability [5]: 86.9%
normalised viability [6]: 94.5%

CN(C)C/C=C/C(=O)Nc1cc2c(Nc3ccc(F)c(Cl)c3)ncnc2cc1O[C@H]1CCOC1 [Afatinib] (300 nM)
normalised viability [1]: 52.9%
normalised viability [2]: 46.1%
normalised viability [3]: 84.6%
normalised viability [4]: 101%
normalised viability [5]: 74.2%
normalised viability [6]: 36.5%

COc1cc(Nc2ncc3c(n2)-c2ccc(Cl)cc2C(c2c(F)cccc2OC)=NC3)ccc1C(=O)O [Alisertib] (10000 nM)
normalised response [7]: 96.5%
normalised response [8]: 63%
normalised response [9]: -35.5%
normalised response [10]: 91.2%
normalised response [11]: 43.6%
normalised response [12]: 114%
normalised response [13]: 94.7%
normalised response [14]: 77.6%
normalised response [15]: 78.5%
normalised response [16]: 94%
normalised response [17]: 11.4%
normalised response [18]: 79.3%
normalised response [19]: 63.4%
normalised response [20]: 70.1%
normalised response [21]: 76%
normalised response [22]: 31.6%
normalised response [23]: -5.36%
normalised response [24]: 93.1%
normalised response [25]: 62.2%
normalised response [26]: 37.2%
normalised response [27]: 61.4%
normalised response [28]: 90.5%
normalised response [29]: 62%
normalised response [30]: 66.9%
normalised response [31]: 60.5%
normalised response [32]: 61.5%
normalised response [33]: 36.7%
normalised response [34]: 58.7%
normalised response [35]: 74%
normalised response [36]: 43.5%
normalised response [37]: 64.5%
normalised response [38]: 49.7%
normalised response [39]: 122%
normalised response [40]: 61.9%
normalised response [41]: 64.5%
normalised response [42]: 24.1%
normalised response [43]: 81.5%

CN1CC[C@H](c2c(O)cc(O)c3c(=O)cc(-c4ccccc4Cl)oc23)[C@H](O)C1 [Alvocidib] (300 nM)
normalised viability [1]: 17.3%
normalised viability [2]: 24.5%
normalised viability [3]: 1.07%
normalised viability [4]: 31.6%
normalised viability [5]: 17.5%
normalised viability [6]: 32.7%

Nc1nc(Cl)nc2c1ncn2[C@H]1C[C@H](O)[C@@H](CO)O1 [Cladribine] (30 nM)
normalised viability [1]: 102%
normalised viability [2]: 90.2%
normalised viability [3]: 101%
normalised viability [4]: 109%
normalised viability [5]: 108%
normalised viability [6]: 107%

Nc1ccn([C@@H]2O[C@H](CO)[C@@H](O)[C@@H]2O)c(=O)n1 [Cytarabine] (300 nM)
normalised viability [1]: 89.2%
normalised viability [2]: 75.1%
normalised viability [3]: 72.6%
normalised viability [4]: 51.2%
normalised viability [5]: 42.2%
normalised viability [6]: 87.5%

Cc1c2oc3c(C)ccc(C(=O)N[C@@H]4C(=O)N[C@H](C(C)C)C(=O)N5CCC[C@H]5C(=O)N(C)CC(=O)N(C)[C@@H](C(C)C)C(=O)O[C@@H]4C)c3nc-2c(C(=O)N[C@@H]2C(=O)N[C@H](C(C)C)C(=O)N3CCC[C@H]3C(=O)N(C)CC(=O)N(C)[C@@H](C(C)C)C(=O)O[C@@H]2C)c(N)c1=O [Dactinomycin] (30 nM)
normalised viability [1]: 4.36%
normalised viability [2]: 16.6%
normalised viability [3]: 0%
normalised viability [4]: 4.91%
normalised viability [5]: 1.36%
normalised viability [6]: 7.48%

COc1cccc2c1C(=O)c1c(O)c3c(c(O)c1C2=O)C[C@@](O)(C(=O)CO)C[C@@H]3O[C@H]1C[C@H](N)[C@H](O)[C@H](C)O1 [Doxorubicin] (30 nM)
normalised viability [1]: 92.2%
normalised viability [2]: 75.2%
normalised viability [3]: 55%
normalised viability [4]: 87.1%
normalised viability [5]: 58.7%
normalised viability [6]: 100%

Cc1ccc(F)c(NC(=O)Nc2ccc(-c3cccc4[nH]nc(N)c34)cc2)c1 [Linifanib] (30 nM)
normalised viability [1]: 118%
normalised viability [2]: 96.2%
normalised viability [3]: 116%
normalised viability [4]: 107%
normalised viability [5]: 94.1%
normalised viability [6]: 96.4%

CC(=O)O[C@]1(C(C)=O)CC[C@H]2[C@@H]3C=C(C)C4=CC(=O)CC[C@]4(C)[C@H]3CC[C@@]21C [Megestrol acetate] (10000 nM)
normalised response [7]: 96.6%
normalised response [8]: 105%
normalised response [9]: 102%
normalised response [10]: 109%
normalised response [11]: 99.2%
normalised response [12]: 58.5%
normalised response [14]: 103%
normalised response [15]: 88.3%
normalised response [16]: 97.6%
normalised response [17]: 111%
normalised response [18]: 123%
normalised response [19]: 99.9%
normalised response [20]: 99.8%
normalised response [21]: 112%
normalised response [22]: 84%
normalised response [23]: 176%
normalised response [24]: 95.9%
normalised response [25]: 90%
normalised response [26]: 107%
normalised response [27]: 135%
normalised response [28]: 97.7%
normalised response [29]: 111%
normalised response [30]: 94.5%
normalised response [31]: 102%
normalised response [32]: 89%
normalised response [33]: 91.7%
normalised response [34]: 96%
normalised response [35]: 93.9%
normalised response [36]: 123%
normalised response [37]: 124%
normalised response [38]: 88.7%
normalised response [39]: 91.3%
normalised response [40]: 102%
normalised response [41]: 98%
normalised response [42]: 95.9%
normalised response [43]: 99.5%

CCN1CCN(c2ccc(Nc3cc(N(C)C(=O)Nc4c(Cl)c(OC)cc(OC)c4Cl)ncn3)cc2)CC1 [NVP-BGJ398] (1000 nM)
normalised response [7]: 89.3%
normalised response [8]: 84.6%
normalised response [9]: 73.2%
normalised response [10]: 119%
normalised response [11]: 102%
normalised response [12]: 115%
normalised response [13]: 101%
normalised response [14]: 94.1%
normalised response [15]: 102%
normalised response [16]: 97.7%
normalised response [17]: 105%
normalised response [19]: 98.1%
normalised response [20]: 81.6%
normalised response [21]: 105%
normalised response [22]: 52.5%
normalised response [23]: 71.5%
normalised response [24]: 100%
normalised response [25]: 71.1%
normalised response [26]: 75.9%
normalised response [27]: 101%
normalised response [28]: 101%
normalised response [29]: 91.3%
normalised response [30]: 86.2%
normalised response [31]: 99.8%
normalised response [32]: 97.7%
normalised response [33]: 50.3%
normalised response [34]: 92.7%
normalised response [35]: 100%
normalised response [36]: 128%
normalised response [37]: 96.2%
normalised response [38]: 96.5%
normalised response [39]: 105%
normalised response [40]: 93.6%
normalised response [41]: 95.7%
normalised response [42]: 97.2%
normalised response [43]: 98.7%

O=C(c1ccc(C(=O)N2CCC(N3CCCC3)CC2)c(Nc2ccccc2)c1)N1CCC(N2CCCC2)CC1 [UNC1215] (30000 nM)
normalised response [7]: 98.6%
normalised response [8]: 86.1%
normalised response [9]: 82.8%
normalised response [10]: 116%
normalised response [11]: 102%
normalised response [12]: 84.2%
normalised response [13]: 50.2%
normalised response [14]: 105%
normalised response [15]: 93.4%
normalised response [16]: 98.2%
normalised response [17]: 106%
normalised response [18]: 88.8%
normalised response [19]: 101%
normalised response [20]: 102%
normalised response [22]: 98.5%
normalised response [23]: 135%
normalised response [24]: 94.3%
normalised response [25]: 107%
normalised response [26]: 98%
normalised response [27]: 95.4%
normalised response [28]: 92.2%
normalised response [29]: 101%
normalised response [30]: 99.6%
normalised response [31]: 97.7%
normalised response [32]: 94%
normalised response [33]: 95.1%
normalised response [34]: 93.2%
normalised response [35]: 94.8%
normalised response [36]: 99.6%
normalised response [37]: 93.9%
normalised response [38]: 93.8%
normalised response [39]: 99.8%
normalised response [40]: 96.5%
normalised response [41]: 94.2%
normalised response [42]: 95%
normalised response [43]: 96%

From the supplement of paper PMC4862054
